Experiments:
LOX IMVI = assay: Melanoma cytotoxicity assay (resazurin); assay type: cell-based; conditions: LOX IMVI melanoma cells; percent viability vs DMSO control; 24 hours with compound
Procedure: (§1) Cytotoxicity Assay: Melanoma cells (˜4000 cells in each well) were incubated in a 96 well plates at 37° C. in 5% CO2 for 24 hours. Compounds were added in triplicates and the plate was further incubated for 24 hours. DMSO and dacarbazine were added as technical and positive controls respectively. Next day resazurin was added and the plate was further incubated for 6 hours followed by reading the plate at 544 nm (excitation) and 590 nm (emission) using BMG Labtech Fluostar Optima plate reader. IC50 values were determined by using Graphpad Prism.
(§2) On day 1, the cell line trypsinized and centrifuged to form cell pellet. The pellet was diluted in media, then counted using Countess automated cell counter. Approximately 4000 cells (198 uL) per well plated in […]. A control well of 200 uL growth media was also prepared. Wells closest to plate perimeter were filled with 200 uL PBS to prevent inner well evaporation. The 96 well plates are incubated in 37° C. incubator at 5% CO2 for 24 hours.
(§3) On day 2, compounds were added (in triplicate) along with DMSO/Dacarbazine controls (2 uL) added to bring wells to volume of 200 μL. The 96 well plates are incubated in 37° C. incubator at 5% CO2 for 24 hours.
(§4) On day 3, 40 μL of 0.15 mg/ml reszurin solution added to wells. Samples were placed in a 37° C. incubator at 5% CO2 for 6 hours. Excitation and emission for fluorescence measured at 544 nm and 590 nm using BMG Labtech Fluostar Optima plate reader
(§5) Percent viability determined by taking average of each triplicate well fluorescence and subtracting GM well reading to remove the background signal. This difference is then divided by the average of the negative control (DMSO) wells to determine percent viability.
(§6) IC50s were determined by using cereal dilution of compound to determine viability. Viabilities and concentration of cells are analyzed in Graphpad Prism by creating sigmoidal curve graph, which will determine the IC50 concentration.
(§7) We analyzed the ability of the thiazole-androstane derivatives to inhibit growth in various melanoma cell lines. The growth inhibition against melanoma cell lines of various compound is shown below in Tables 19 and 20. Inhibition results are reported as the IC50 concentration in μM of the indicated compound or as the percent viability […] of the indicated compound. NA=not available.

SK-MEL-25 = assay: Melanoma cytotoxicity assay (resazurin); assay type: cell-based; conditions: SK-MEL-25 melanoma cells, 24 hours with compound
Procedure: as §1, §2, §3, §4, §5, §6, §7

SK-MEL-28 = assay: Melanoma cytotoxicity assay (resazurin); assay type: cell-based; conditions: SK-MEL-28 melanoma cells, 24 hours with compound
Procedure: as §1, §2, §3, §4, §5, §6, §7

SK-MEL-5 = assay: Melanoma cytotoxicity assay (resazurin); assay type: cell-based; conditions: SK-MEL-5 melanoma cells, 24 hours with compound
Procedure: as §1, §2, §3, §4, §5, §6, §7

MALME-3M = assay: Melanoma cytotoxicity assay (resazurin); assay type: cell-based; conditions: MALME-3M melanoma cells; percent viability vs DMSO control; 24 hours with compound
Procedure: as §2, §3, §4, §5, §6, §7

[1] = system: 60 different human tumor cell lines; assay: NCI Development Therapeutics Program 60 cell line screen, one dose; assay type: cell-based
NCI-H522 (NSCLC) = assay: NCI 60 one dose screen; assay type: cell-based, human; conditions: Non-small Cell Lung Cancer
HCT-15 (Colon Cancer) = assay: NCI 60 one dose screen; assay type: cell-based, human
SF-295 = assay: NCI 60 one dose screen; assay type: cell-based, human; conditions: for Growth Percent: one dose, CNS Cancer, SF-295
SF-539 = assay: NCI 60 one dose screen; assay type: cell-based, human; conditions: for Growth Percent: one dose, CNS Cancer, SF-539
[2] = percent viability vs DMSO control
[3] = Non-small Cell Lung Cancer, A549/ATCC
[4] = Non-small Cell Lung Cancer, EKVX
[5] = Non-small Cell Lung Cancer, HOP-62
[6] = Non-small Cell Lung Cancer, HOP-92
[7] = Non-small Cell Lung Cancer, NCI-H23
[8] = Non-small Cell Lung Cancer, NCI-H226
[9] = Non-small Cell Lung Cancer, NCI-H322M
[10] = Non-small Cell Lung Cancer, NCI-H460
[11] = resazurin, concentration not given

Compound: C[C@]12CC[C@H]3[C@@H](CC=C4c5sc(Nc6cccc(O)c6)nc5CC[C@@]43C)[C@@H]1CC[C@@H]2O [IIIa.39]
- LOX-IMVI (% viability) (LOX IMVI): 51%
- SK-MEL-25 (% viability) (SK-MEL-25; [2]): 6.33%
- SK-MEL-28 (% viability) (SK-MEL-28; [2]): 3.71%
- SK-MEL-5 (% viability) (SK-MEL-5; [2]): 6.75%
- MALME-3M (% viability) (MALME-3M): 45.95%

Compound: CN(c1ccccc1)c1nc2c(s1)CC[C@@]1(C)C2=CC[C@@H]2[C@@H]1CC[C@]1(C)C(=O)CC[C@@H]21 [IIa.6, (1S,2R,13R,14S,18S)-2,18-dimethyl-7-(N-methylanilino)-6-thia-8-azapentacyclo[11.7.0.02,10.05,9.014,18]icosa-5(9),7,10-trien-17-one]
- Growth Percent ([1]; Breast Cancer, BT-549): 45.19%
- Growth Percent ([1]; Breast Cancer, HS 578T): 54.53%
- Growth Percent ([1]; Breast Cancer, MCF7): 32.55%
- Growth Percent ([1]; Breast Cancer, MDA-MB-231/ATCC): 68.22%
- Growth Percent ([1]; Breast Cancer, MDA-MB-468): 29.56%
- Growth Percent ([1]; Breast Cancer, T-47D): 65.84%
- Growth Percent ([1]; CNS Cancer, SF-268): 73.87%
- Growth Percent ([1]; CNS Cancer, SNB-19): 54.72%
- Growth Percent ([1]; CNS Cancer, SNB-75): 73.17%
- Growth Percent ([1]; CNS Cancer, U251): 36.99%
- Growth Percent ([1]; Colon Cancer, COLO 205): 48.79%
- Growth Percent ([1]; Colon Cancer, HCC-2998): 82.14%
- Growth Percent ([1]; Colon Cancer, HCT-116): 32.71%
- Growth Percent ([1]; Colon Cancer, HT29): 10.25%
- Growth Percent ([1]; Colon Cancer, KM12): 33.11%
- Growth Percent ([1]; Colon Cancer, SW-620): 44.14%
- Growth Percent ([1]; Leukemia, CCRF-CEM): 44.17%
- Growth Percent ([1]; Leukemia, HL-60(TB)): 44.55%
- Growth Percent ([1]; Leukemia, MOLT-4): 45.63%
- Growth Percent ([1]; Leukemia, RPMI-8226): 48.36%
- Growth Percent ([1]; Leukemia, SR): 31.74%
- Growth Percent ([1]; Melanoma, LOX IMVI): 66.30%
- Growth Percent ([1]; Melanoma, M14): 41.12%
- Growth Percent ([1]; Melanoma, MALME-3M): 55.43%
- Growth Percent ([1]; Melanoma, MDA-MB-435): 2.34%
- Growth Percent ([1]; Melanoma, SK-MEL-2): 49.76%
- Growth Percent ([1]; Melanoma, SK-MEL-5): 32.53%
- Growth Percent ([1]; Melanoma, SK-MEL-28): 72.19%
- Growth Percent ([1]; Melanoma, UACC-62): 38.23%
- Growth Percent ([1]; Melanoma, UACC-257): 67.13%
- Growth Percent [1, 3]: 47.72%
- Growth Percent [1, 4]: 78.34%
- Growth Percent [1, 5]: 70.07%
- Growth Percent [1, 6]: 78.79%
- Growth Percent [1, 7]: 79.64%
- Growth Percent [1, 8]: 83.39%
- Growth Percent [1, 9]: 89.66%
- Growth Percent [1, 10]: 38.69%
- Growth Percent ([1]; Ovarian Cancer, IGROV1): 67.27%
- Growth Percent ([1]; Ovarian Cancer, NCI/ADR-RES): 43.96%
- Growth Percent ([1]; Ovarian Cancer, OVCAR-3): 36.20%
- Growth Percent ([1]; Ovarian Cancer, OVCAR-4): 83.97%
- Growth Percent ([1]; Ovarian Cancer, OVCAR-5): 98.72%
- Growth Percent ([1]; Ovarian Cancer, OVCAR-8): 76.81%
- Growth Percent ([1]; Ovarian Cancer, SK-OV-3): 79.14%
- Growth Percent ([1]; Prostate Cancer, DU-145): 79.22%
- Growth Percent ([1]; Prostate Cancer, PC-3): 71.01%
- Growth Percent ([1]; Renal Cancer, 786-0): 58.79%
- Growth Percent ([1]; Renal Cancer, A498): 50.67%
- Growth Percent ([1]; Renal Cancer, ACHN): 93.66%
- Growth Percent ([1]; Renal Cancer, CAKI-1): 61.11%
- Growth Percent ([1]; Renal Cancer, RXF 393): 79.66%
- Growth Percent ([1]; Renal Cancer, SN12C): 77.26%
- Growth Percent ([1]; Renal Cancer, TK-10): 91.08%
- Growth Percent ([1]; Renal Cancer, UO-31): 79.34%
- SK-MEL-25 (% inhibition) (SK-MEL-25; [11]): 60%
- SK-MEL-28 (% inhibition) (SK-MEL-28; [11]): 60%
- SK-MEL-5 (% inhibition) (SK-MEL-5; [11]): 63%
- Growth Percent (NCI-H522 (NSCLC)): 8.26%
- Growth Percent (HCT-15 (Colon Cancer)): 35.23%
- Growth Percent (SF-295): 42.68%
- Growth Percent (SF-539): 51.35%

Compound: (1S,2R,13R,14S,18S)-7-(3-fluorophenyl)-2,18-dimethyl-8-thia-6-azapentacyclo[11.7.0.02,10.05,9.014,18]icosa-5(9),7,10-trien-17-one [II.12]
- Growth Percent ([1]; Breast Cancer, BT-549): 23.16%
- Growth Percent ([1]; Breast Cancer, HS 578T): 27.43%
- Growth Percent ([1]; Breast Cancer, MCF7): 10.76%
- Growth Percent ([1]; Breast Cancer, MDA-MB-231/ATCC): 62.02%
- Growth Percent ([1]; Breast Cancer, MDA-MB-468): 29.20%
- Growth Percent ([1]; Breast Cancer, T-47D): 3.07%
- Growth Percent ([1]; CNS Cancer, SF-268): 52.39%
- Growth Percent ([1]; CNS Cancer, SNB-19): 60.01%
- Growth Percent ([1]; CNS Cancer, SNB-75): 44.61%
- Growth Percent ([1]; CNS Cancer, U251): 18.77%
- Growth Percent ([1]; Colon Cancer, COLO 205): 44.55%
- Growth Percent ([1]; Colon Cancer, HCC-2998): 79.47%
- Growth Percent ([1]; Colon Cancer, HCT-116): 0.51%
- Growth Percent ([1]; Colon Cancer, HT29): 5.21%
- Growth Percent ([1]; Colon Cancer, KM12): 46.48%
- Growth Percent ([1]; Colon Cancer, SW-620): 3.81%
- Growth Percent ([1]; Leukemia, CCRF-CEM): 15.82%
- Growth Percent ([1]; Leukemia, HL-60(TB)): 34.18%
- Growth Percent ([1]; Leukemia, K-562): 7.01%
- Growth Percent ([1]; Leukemia, MOLT-4): 5.82%
- Growth Percent ([1]; Leukemia, RPMI-8226): −2.88%
- Growth Percent ([1]; Leukemia, SR): 5.11%
- Growth Percent ([1]; Melanoma, LOX IMVI): 1.34%
- Growth Percent ([1]; Melanoma, M14): 57.14%
- Growth Percent ([1]; Melanoma, MALME-3M): 37.62%
- Growth Percent ([1]; Melanoma, MDA-MB-435): 49.24%
- Growth Percent ([1]; Melanoma, SK-MEL-2): 32.06%
- Growth Percent ([1]; Melanoma, SK-MEL-5): 61.51%
- Growth Percent ([1]; Melanoma, SK-MEL-28): 48.00%
- Growth Percent ([1]; Melanoma, UACC-62): 34.85%
- Growth Percent ([1]; Melanoma, UACC-257): 77.45%
- Growth Percent [1, 3]: 55.01%
- Growth Percent [1, 4]: 68.33%
- Growth Percent [1, 5]: 50.54%
- Growth Percent [1, 6]: 74.28%
- Growth Percent [1, 7]: 62.70%
- Growth Percent [1, 8]: 65.84%
- Growth Percent [1, 9]: 69.34%
- Growth Percent [1, 10]: 53.88%
- Growth Percent ([1]; Ovarian Cancer, IGROV1): 0.60%
- Growth Percent ([1]; Ovarian Cancer, NCI/ADR-RES): 68.33%
- Growth Percent ([1]; Ovarian Cancer, OVCAR-3): 7.89%
- Growth Percent ([1]; Ovarian Cancer, OVCAR-4): 65.10%
- Growth Percent ([1]; Ovarian Cancer, OVCAR-5): 87.24%
- Growth Percent ([1]; Ovarian Cancer, OVCAR-8): 28.53%
- Growth Percent ([1]; Ovarian Cancer, SK-OV-3): 17.92%
- Growth Percent ([1]; Prostate Cancer, DU-145): 22.88%
- Growth Percent ([1]; Prostate Cancer, PC-3): 35.02%
- Growth Percent ([1]; Renal Cancer, 786-0): −10.07%
- Growth Percent ([1]; Renal Cancer, ACHN): 11.90%
- Growth Percent ([1]; Renal Cancer, CAKI-1): 36.88%
- Growth Percent ([1]; Renal Cancer, RXF 393): −22.47%
- Growth Percent ([1]; Renal Cancer, SN12C): 42.89%
- Growth Percent ([1]; Renal Cancer, TK-10): 24.03%
- Growth Percent ([1]; Renal Cancer, UO-31): 1.08%
- Growth Percent (NCI-H522 (NSCLC)): −36.55%
- Growth Percent (HCT-15 (Colon Cancer)): −38.17%
- mean growth percent (SF-295; SF-295 (CNS cancer panel), 10 μM): −18.91%
- Growth Percent (SF-295): −18.91%
- mean growth percent (SF-539; SF-539 (CNS cancer panel), 10 μM): −33.43%
- Growth Percent (SF-539): −33.43%

Source: US20250296953A1, “3,4-THIAZOLO-STEROIDS AND METHODS OF MAKING AND USING THE SAME” (Arkansas State University - Jonesboro, priority 2018, published 2025)
